Assay results from ChEMBL document CHEMBL1201862, “PubChem BioAssay data set” (2004).
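Growth conditions: 96-well plates. Treatment: test compound, 48 hours, 5 concentrations. Analysis: linear interpolation between bracketing concentrations; unreached endpoints set to highest concentration. GI50: concentration for 50% inhibition of growth.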 Active and inactive are the calls of the source. No stated cut-off is given here; in the data, active = GI50 up to about 1.1 µM and inactive = higher.

Columns and labels:
Assay in all cases: inhibition of tumour cell growth, NCI panel, 48 h
UACC-62 = tested on: UACC-62
HOP-92 = tested on: HOP-92
BT-549 = tested on: BT-549
SK-MEL-5 = tested on: SK-MEL-5
HCT-116 = tested on: HCT-116
PC-3 = tested on: PC-3
HL-60 = tested on: HL-60
IGROV-1 = tested on: IGROV-1
SR = tested on: SR
HT-29 = tested on: HT-29
OVCAR-3 = tested on: OVCAR-3
M14 = tested on: M14
786-0 = tested on: 786-0
HCT-15 = tested on: HCT-15
SF-268 = tested on: SF-268
CAKI-1 = tested on: CAKI-1
MOLT-4 = tested on: MOLT-4
NCI-H460 = tested on: NCI-H460
U-251 = tested on: U-251
A549 = tested on: A549

| Compound | GI50 (UACC-62) | GI50 (HOP-92) | GI50 (BT-549) | GI50 (SK-MEL-5) | GI50 (HCT-116) | GI50 (PC-3) | GI50 (HL-60) | GI50 (IGROV-1) | GI50 (SR) | GI50 (HT-29) | GI50 (OVCAR-3) | GI50 (M14) | GI50 (786-0) | GI50 (HCT-15) [nM] | GI50 (SF-268) | GI50 (CAKI-1) | GI50 (MOLT-4) | GI50 (NCI-H460) | GI50 (U-251) | GI50 (A549) |
| --- | --- | --- | --- | --- | --- | --- | --- | --- | --- | --- | --- | --- | --- | --- | --- | --- | --- | --- | --- | --- |
| CC(C)(C)c1cc(C(=O)/C=C/c2ccc(O)c(O)c2O)cc(C(C)(C)C)c1O | 4.54 µM (inactive) | 5.68 µM (inactive) | 7.4 µM (inactive) | 5.6 µM (inactive) | 2.73 µM (inactive) | 3.67 µM (inactive) | 1.77 µM (inactive) | 6 µM (inactive) | 1.45 µM (inactive) | 11.7 µM (inactive) | 3.52 µM (inactive) | 5.46 µM (inactive) | 4.43 µM (inactive) | 991 | 5.3 µM (inactive) | 3.21 µM (inactive) | 2.49 µM (inactive) | 1.78 µM (inactive) | 2.79 µM (inactive) | 5.06 µM (inactive) |
| CCOC(=O)c1c(N2CCN(C)CC2)[nH]c(=O)c(C(c2c(Cl)cccc2Cl)c2c(O)c(C(=O)OCC)c(N3CCN(C)CC3)[nH]c2=O)c1O | 21.5 µM (inactive) | 19.1 µM (inactive) | 20.6 µM (inactive) | 20.7 µM (inactive) | 38.1 µM (inactive) | 22.5 µM (inactive) | 19.5 µM (inactive) | 20.7 µM (inactive) | 21.9 µM (inactive) | 19.8 µM (inactive) | 34.8 µM (inactive) | 30 µM (inactive) | 27.7 µM (inactive) | 30700 | 24.2 µM (inactive) | 26.5 µM (inactive) | 23.5 µM (inactive) | 28.1 µM (inactive) | 23.1 µM (inactive) | 27.9 µM (inactive) |
| O=C1c2ccccc2C(=O)N1[C@@H](Cc1ccccc1)C(=O)n1cccc1CO | > 100 µM (inactive) | > 100 µM (inactive) | > 100 µM (inactive) | > 100 µM (inactive) | > 100 µM (inactive) | > 100 µM (inactive) | > 100 µM (inactive) | > 100 µM (inactive) | > 100 µM (inactive) | > 100 µM (inactive) | > 100 µM (inactive) | > 100 µM (inactive) | > 100 µM (inactive) | > 100000 | > 100 µM (inactive) | > 100 µM (inactive) | > 100 µM (inactive) | > 100 µM (inactive) | > 100 µM (inactive) | > 100 µM (inactive) |
| O=C1/C(=N\NC(=S)NC2CCCCC2)c2cc([N+](=O)[O-])ccc2N1CN1CCOCC1 | 7.89 µM (inactive) | 1.96 µM (inactive) | 4.86 µM (inactive) | 3.16 µM (inactive) | 3.57 µM (inactive) | 4.7 µM (inactive) | 3.32 µM (inactive) | 1.51 µM (inactive) | 1.14 µM (inactive) | 4.48 µM (inactive) | 5.86 µM (inactive) | 9.53 µM (inactive) | 5.52 µM (inactive) | 2390 | 4.35 µM (inactive) | 3.3 µM (inactive) | 1.71 µM (inactive) | 2.55 µM (inactive) | 4.52 µM (inactive) | 4.05 µM (inactive) |
| CC(=O)O[C@H]1C(=O)[C@@]2(C)[C@H]([C@H](OC(=O)c3cccc([N+](=O)[O-])c3)[C@]3(O)C[C@H](OC(=O)[C@H](O)[C@@H](NC(=O)c4ccccc4)c4ccccc4)C(C)=C1C3(C)C)[C@]1(OC(C)=O)CO[C@@H]1C[C@@H]2O | 0.0153 µM (active) | 0.022 µM (active) | 0.0376 µM (active) | 0.00582 µM (active) | 0.00533 µM (active) | 0.0065 µM (active) | < 0.0025 µM (active) | 0.00783 µM (active) | 0.00447 µM (active) | 0.0043 µM (active) | < 0.0025 µM (active) | 0.00619 µM (active) | 0.0159 µM (active) | 438 | 0.021 µM (active) | 0.241 µM (active) | 0.00509 µM (active) | 0.00601 µM (active) | 0.00681 µM (active) | 0.014 µM (active) |
